Assay results reported in patent publication US20070098649A1, “Method and composition for controlling oral pathogens” (priority 2004, published 2007).
Counter-ions that a name gives are not always drawn. Like-named read-outs stand apart in the source and are kept apart here. Marks after values point to notes of the source that are not given here.

Columns and labels:
[1] = tested on: Streptococcus mutans; experiment: MIC microdilution assay; format: cell-based; details: S. mutans; for MIC: Streptococcus mutans
[2] = tested on: Fusobacterium nucleatum; experiment: MIC microdilution assay; format: cell-based; details: F. nucleatum
[3] = tested on: Actinobacillus actinomycetemcomitans; experiment: MIC microdilution assay; format: cell-based; details: for MIC: Aggregatibacter actinomycetemcomitans
[4] = tested on: Streptococcus gordonii; experiment: MIC microdilution assay; format: cell-based; details: S. gordonii
[5] = tested on: Porphymonas gingivalis; experiment: MIC microdilution assay; format: cell-based; details: P. gingivalis; for MIC: Porphyromonas gingivalis
[6] = tested on: oral pathogens; experiment: Combination determination, statements on the oral pathogens; format: cell-based; details: berberine hydrochloride / berberine (B-CG and B-S)
Method: (§1) The alkaloids were tested in pair-wise combinations (fractional inhibitory concentrations, FIC) against all the bacteria to determine whether interactions were antagonistic (FIC>1), additive (0.5<FIC<1), or synergistic (FIC<0.5). The FIC was calculated by the following: (MIC Acombination/MIC Aalone)+(MIC Bcombination/MIC Balone). Where A represents compound 1 and B represents compound 2. […] In the case of A. actinomycetemcomitans and P. aeruginosa, CHX was used at 0.78 to 50 μg ml^−1. Berberine (B-CG and B-S) was used at concentrations 0.9 to 250 μg ml^−1. The antibacterial efficacy of berberine (1.95 to 500 μg ml^−1) was tested in combination against P. aeruginosa with CHX (0.78 to 50 μg ml^−1) (Sigma Chemicals) and the polymyxin antibiotic Col (0.04 to 25 μg ml^−1) (Sigma Chemicals). The plates were incubated for 24 hours.

[7] = tested on: Actinobacillus actinomycetemcomitans; experiment: Combination determination (FIC, MIC in combination); format: cell-based; details: A. actinomycetemcomitans grown under anaerobic conditions; berberine (B-CG) combined with CHX, Tet or Dox; MIC of the named agent in the combination
Method: as §1

[8] = tested on: Escherichia coli; experiment: as above; format: cell-based; details: E. coli
Method: as §1

[9] = tested on: Staphylococcus aureus; experiment: as above; format: cell-based; details: S. aureus
Method: as §1

[10] = tested on: Streptococcus gordonii; experiment: as above; format: cell-based; details: S. gordonii; berberine (B-CG) combined with CHX, Tet or Dox; MIC of the named agent in the combination
Method: as §1

[11] = tested on: Porphymonas gingivalis; experiment: as above; format: cell-based; details: P. gingivalis; berberine (B-CG) combined with CHX, Tet or Dox; MIC of the named agent in the combination
Method: as §1

[12] = tested on: Fusobacterium nucleatum; experiment: as above; format: cell-based; details: F. nucleatum; berberine (B-CG) combined with CHX, Tet or Dox; MIC of the named agent in the combination
Method: as §1

[13] = tested on: Staphylococcus aureus; experiment: MIC microdilution assay; format: cell-based; details: S. aureus, agent alone, read-out: MIC of the antimicrobial agents alone
[14] = tested on: Streptococcus mutans; experiment: Combination determination (FIC, MIC in combination); format: cell-based; details: S. mutans; berberine (B-CG) combined with CHX, Tet or Dox; MIC of the named agent in the combination
Method: as §1
CHX was diluted from left to right at 10 to 0.08 μg ml^−1 ([…] 1 to 8), berberine was diluted from top to bottom at 250 to 0.09 μg ml^−1 ([…] 1 to 8). Column 9 was the cell control, column 10 was berberine alone (250 to 0.09 μg ml^−1); and column 11 was CHX alone (10 to 0.08 μg ml^−1). Row H was the solvent control (8% DMSO, H1 to H8). Column 12 was the media blank. The dilution assay was designed such that A1 contained the highest concentration of both agents (berberine 250 μg ml^−1 and CHX 10 μg ml^−1). The final concentration of berberine in wells A2 to A8 was […]. The FIC value was calculated from well C6. FIC was calculated by: (MIC Acombination/MIC Aalone)+(MIC Bcombination/MIC Balone).

[15] = tested on: Escherichia coli; experiment: MIC microdilution assay; format: cell-based; details: E. coli, agent alone, read-out: MIC of the antimicrobial agents alone
[16] = tested on: S. aureus, E. coli, P. aeruginosa, and S. sanguis; details: isolated from H. canadensis; cited from earlier work
[17] = tested on: Pseudomonas aeruginosa; experiment: MIC microdilution assay; format: cell-based; details: P. aeruginosa; agent alone
[18] = tested on: Pseudomonas aeruginosa; experiment: Combination determination (FIC, MIC in combination); format: cell-based; details: P. aeruginosa
Method: as §1

[19] = berberine (B-CG) combined with CHX, Tet or Dox, MIC of the named agent in the combination
[20] = berberine hydrochloride / chloride
[21] = agent alone, read-out: MIC of the antimicrobial agents alone

Compound: COc1cc2c(cc1O)[C@@H]1Cc3ccc(OC)c(OC)c3CN1CC2 [Isocorypalamine, isocorypalmine]
- MIC of Goldenseal Alkaloids Against Selected Oral Pathogens ([1]; Sm): >125 µg/mL
- MIC of Goldenseal Alkaloids Against Selected Oral Pathogens ([2]; Fn): >125 µg/mL
- MIC of Goldenseal Alkaloids Against Selected Oral Pathogens ([3]; Aa, A. actinomycetemcomitans): >125 µg/mL
- MIC of Goldenseal Alkaloids Against Selected Oral Pathogens ([4]; Sg): >125 µg/mL
- MIC of Goldenseal Alkaloids Against Selected Oral Pathogens ([5]; Pg): >125 µg/mL

Compound: CN(C)[C@@H]1C(O)=C(C(N)=O)C(=O)[C@@]2(O)C(O)=C3C(=O)c4c(O)cccc4[C@@](C)(O)[C@H]3C[C@@H]12 [Tet, tetracycline HCl]
- Growth inhibition effect when combined with berberine [6]: synergistic
- MIC of the antimicrobial agents in combination [7]: 12.5** μg ml^−1
- MIC of the antimicrobial agents in combination [8, 19]: 1.53 µg/mL
- Growth inhibition effect when combined with berberine [8, 20]: synergistic
- MIC of the antimicrobial agents in combination [9, 19]: 0.39 µg/mL
- Growth inhibition effect when combined with berberine [9, 20]: synergistic
- MIC of the antimicrobial agents in combination [10]: 0.08 µg/mL
- MIC of the antimicrobial agents in combination [11]: 0.01 µg/mL
- MIC of the antimicrobial agents in combination [12]: 0.02 µg/mL
- MIC [1, 21]: 1.56 µg/mL
- MIC ([2]; Fusobacterium nucleatum, agent alone, read-out: MIC of the antimicrobial agents alone): 0.16 µg/mL
- MIC ([3]; A. actinomycetemcomitans grown under anaerobic conditions, agent alone, read-out: MIC of the antimicrobial agents alone): 25 µg/mL
- MIC [13]: 1.53 µg/mL
- MIC of the antimicrobial agents in combination [14]: 0.20 µg/mL
- MIC [15]: 3.06 µg/mL
- MIC ([4]; Streptococcus gordonii, agent alone, read-out: MIC of the antimicrobial agents alone): 0.31 µg/mL
- MIC [5, 21]: 0.08 µg/mL

Compound: COc1ccc2cc3[n+](cc2c1O)CCc1cc2c(cc1-3)OCO2 [berberrubine]
- Concentration without growth inhibition (MIC bound) ([1]; growth hindered, but not inhibited at lower concentrations): greater than 300 μml^−1
- MIC ([1]; growth limited but not inhibited at lower concentrations, text b118, read-out: Concentration without growth inhibition (MIC bound)): > 300 µg/mL
- Concentration without antimicrobial activity (MIC bound) ([3]; A. actinomycetecomitans): ≥ 300 μml^−1
- MIC ([3]; A. actinomycetemcomitans, read-out: Concentration without growth inhibition (MIC bound)): > 300 µg/mL
- MIC ([5]; comparable to berberine, read-out: MIC): 17 µg/mL

Compound: COc1ccc2c(c1OC)C(=O)O[C@@H]2[C@H]1c2cc3c(cc2CCN1C)OCO3 [β-hydrastine]
- Antibacterial activity [16]: inactive against all the tested organisms

Compound: colistin sulfate
- MIC of the antimicrobial agents alone [17]: 3.13 µg/mL
- Interaction when combined with berberine [18]: no clear additive or synergistic effect
- MIC of the antimicrobial agents in combination ([18]; berberine combined with CHX or Col, MIC of the named agent in the combination): 1.56 µg/mL
